# Where “and” joins values, the source holds several entries; their conditions need not be identical. Equal entries are not always repeated.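 Five compound concentrations were applied to cells in 96-well plates for 48 hours; endpoints were derived by simple linear interpolation of the resulting dose-response curve. GI50 is the concentration that inhibits growth by half. TGI: concentration producing complete growth inhibition.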
# What was measured:
# Assay in all cases: NCI tumour cell line growth inhibition, 48 h
# SK-MEL-28 melanoma = test system: SK-MEL-28 melanoma
# SF-268 CNS = test system: SF-268 CNS
# SR leukemia = test system: SR leukemia
# KM20L2 colon = test system: KM20L2 colon
# OVCAR-3 ovarian = test system: OVCAR-3 ovarian
# RPMI-8226 leukemia = test system: RPMI-8226 leukemia
# KM12 colon = test system: KM12 colon
# MDA-MB-435 = test system: MDA-MB-435
# HOP-18 NSCLC = test system: HOP-18 NSCLC
# P388 leukemia = test system: P388 leukemia
# UO-31 renal = test system: UO-31 renal
# M19-MEL melanoma = test system: M19-MEL melanoma
# PC-3 prostate = test system: PC-3 prostate
# OVCAR-4 ovarian = test system: OVCAR-4 ovarian
# DLD-1 colon = test system: DLD-1 colon
# NCI/ADR-RES ovarian = test system: NCI/ADR-RES ovarian
# MALME-3M melanoma = test system: MALME-3M melanoma
# MCF7 breast = test system: MCF7 breast
# CCRF-CEM leukemia = test system: CCRF-CEM leukemia
# DU-145 prostate = test system: DU-145 prostate
# A549 NSCLC = test system: A549 NSCLC
# OVCAR-8 ovarian = test system: OVCAR-8 ovarian
# TK-10 renal = test system: TK-10 renal
# NCI-H522 lung = test system: NCI-H522 lung
# DMS 114 small cell lung = test system: DMS 114 small cell lung
# MDA-MB-231 breast = test system: MDA-MB-231 breast
# P388/ADR leukemia = test system: P388/ADR leukemia
# 786-0 renal = test system: 786-0 renal
# DMS 273 small cell lung = test system: DMS 273 small cell lung
# MOLT-4 leukemia = test system: MOLT-4 leukemia
# SN12C renal = test system: SN12C renal
# IGROV1 ovarian = test system: IGROV1 ovarian
# BT-549 breast = test system: BT-549 breast
# SNB-78 CNS = test system: SNB-78 CNS
# SNB-19 CNS = test system: SNB-19 CNS
# T-47D breast = test system: T-47D breast
# SW-620 colon = test system: SW-620 colon
# NCI-H460 lung = test system: NCI-H460 lung
# HCT-116 colon = test system: HCT-116 colon
# NCI-H23 lung = test system: NCI-H23 lung
# CAKI-1 renal = test system: CAKI-1 renal
# SK-OV-3 ovarian = test system: SK-OV-3 ovarian
# ACHN renal = test system: ACHN renal
# HOP-62 NSCLC = test system: HOP-62 NSCLC
# COLO 205 colon = test system: COLO 205 colon
# EKVX NSCLC = test system: EKVX NSCLC
# SK-MEL-5 melanoma = test system: SK-MEL-5 melanoma
# M14 melanoma = test system: M14 melanoma
# HT29 colon = test system: HT29 colon
# SF-539 CNS = test system: SF-539 CNS
# SK-MEL-2 melanoma = test system: SK-MEL-2 melanoma
# HOP-92 NSCLC = test system: HOP-92 NSCLC
# SNB-75 CNS = test system: SNB-75 CNS
# HS 578T breast = test system: HS 578T breast
# U251 CNS = test system: U251 CNS
# OVCAR-5 ovarian = test system: OVCAR-5 ovarian
# RXF 393 renal = test system: RXF 393 renal
# HCT-15 colon = test system: HCT-15 colon
# LOX IMVI melanoma = test system: LOX IMVI melanoma
# UACC-62 melanoma = test system: UACC-62 melanoma
# HCC-2998 colon = test system: HCC-2998 colon
# UACC-257 melanoma = test system: UACC-257 melanoma
# SF-295 CNS = test system: SF-295 CNS
# XF 498 CNS = test system: XF 498 CNS
# K-562 leukemia = test system: K-562 leukemia
# NCI-H226 lung = test system: NCI-H226 lung
# A498 renal = test system: A498 renal
# HL-60(TB) leukemia = test system: HL-60(TB) leukemia
# SN12K1 renal = test system: SN12K1 renal
compound,measurement,setting,value
O=C1C=C2C(=CCOC2O)O1 (stereo not drawn),GI50,SK-MEL-28 melanoma,1280 nM and 2370 nM
same,TGI,SK-MEL-28 melanoma,3.38 µM and 5.83 µM
same,GI50,SF-268 CNS,1100 nM and 3660 nM
same,TGI,SF-268 CNS,8.18 µM and 13.9 µM
same,GI50,SR leukemia,2110 nM
same,TGI,SR leukemia,8.51 µM
same,TGI,KM20L2 colon,12.1 µM
same,GI50,OVCAR-3 ovarian,1700 nM and 664 nM
same,TGI,OVCAR-3 ovarian,4.06 µM and 2.19 µM
same,GI50,RPMI-8226 leukemia,3.6 µM
same,GI50,KM12 colon,783 nM and 3080 nM
same,TGI,KM12 colon,1.85 µM and 11.2 µM
same,GI50,MDA-MB-435,1640 nM
same,TGI,MDA-MB-435,3.86 µM
same,TGI,HOP-18 NSCLC,4.77 µM
same,TGI,P388 leukemia,439 nM
same,GI50,UO-31 renal,3980 nM and 1240 nM
same,TGI,UO-31 renal,8.77 µM and 6.43 µM
same,TGI,M19-MEL melanoma,8.14 µM
same,GI50,PC-3 prostate,4.69 µM
same,TGI,PC-3 prostate,17.1 µM
same,TGI,OVCAR-4 ovarian,12.5 µM
same,TGI,DLD-1 colon,2.07 µM
same,GI50,NCI/ADR-RES ovarian,2760 nM
same,TGI,NCI/ADR-RES ovarian,4.35 µM and 12.5 µM
same,TGI,MALME-3M melanoma,2040 nM
same,TGI,MCF7 breast,17.3 µM and 13.7 µM
same,GI50,CCRF-CEM leukemia,1110 nM
same,TGI,CCRF-CEM leukemia,0.709 µM and 6.03 µM
same,GI50,DU-145 prostate,2070 nM
same,TGI,DU-145 prostate,6.48 µM
same,GI50,A549 NSCLC,5.51 µM
same,TGI,A549 NSCLC,21.2 µM and 22.2 µM
same,GI50,OVCAR-8 ovarian,734 nM and 2570 nM
same,TGI,OVCAR-8 ovarian,5.07 µM and 9.22 µM
same,GI50,TK-10 renal,259 nM
same,TGI,TK-10 renal,652 nM
same,GI50,NCI-H522 lung,1120 nM
same,TGI,NCI-H522 lung,1070 nM and 2520 nM
same,TGI,DMS 114 small cell lung,3290 nM
same,GI50,MDA-MB-231 breast,1960 nM
same,TGI,MDA-MB-231 breast,5.07 µM
same,TGI,P388/ADR leukemia,569 nM
same,GI50,786-0 renal,2670 nM
same,TGI,786-0 renal,7.06 µM
same,TGI,DMS 273 small cell lung,2410 nM
same,GI50,MOLT-4 leukemia,3.66 µM
same,TGI,MOLT-4 leukemia,1.61 µM and 10.7 µM
same,GI50,SN12C renal,2590 nM
same,TGI,SN12C renal,1.86 µM and 10 µM
same,GI50,IGROV1 ovarian,2590 nM
same,TGI,IGROV1 ovarian,9.78 µM and 6.24 µM
same,GI50,BT-549 breast,3.28 µM
same,TGI,BT-549 breast,9.67 µM
same,TGI,SNB-78 CNS,11.6 µM
same,GI50,SNB-19 CNS,3.23 µM and 12.8 µM
same,TGI,SNB-19 CNS,9.77 µM and 27.8 µM
same,GI50,T-47D breast,1400 nM
same,TGI,T-47D breast,4.64 µM
same,GI50,SW-620 colon,395 nM and 443 nM
same,TGI,SW-620 colon,1230 nM and 1880 nM
same,GI50,NCI-H460 lung,3.86 µM
same,TGI,NCI-H460 lung,2410 nM and 18300 nM
same,GI50,HCT-116 colon,1140 nM
same,TGI,HCT-116 colon,544 nM and 2400 nM
same,GI50,NCI-H23 lung,2730 nM
same,TGI,NCI-H23 lung,4.14 µM and 10.6 µM
same,GI50,CAKI-1 renal,1060 nM and 1000 nM
same,TGI,CAKI-1 renal,2300 nM and 2500 nM
same,GI50,SK-OV-3 ovarian,11.5 µM and 12.2 µM
same,TGI,SK-OV-3 ovarian,20.6 µM and 24.6 µM
same,GI50,ACHN renal,1280 nM
same,TGI,ACHN renal,3.34 µM
same,TGI,HOP-62 NSCLC,20.5 µM and 23.4 µM
same,GI50,COLO 205 colon,395 nM and 655 nM
same,TGI,COLO 205 colon,1040 nM and 1970 nM
same,GI50,EKVX NSCLC,1.76 µM and 10.6 µM
same,TGI,EKVX NSCLC,4.64 µM and 40.4 µM
same,GI50,SK-MEL-5 melanoma,2430 nM
same,TGI,SK-MEL-5 melanoma,3.17 µM and 9.05 µM
same,GI50,M14 melanoma,1590 nM
same,TGI,M14 melanoma,3.08 µM
same,GI50,HT29 colon,6.05 µM and 1.16 µM
same,TGI,HT29 colon,22.7 µM and 3.37 µM
same,GI50,SF-539 CNS,941 nM and 1770 nM
same,TGI,SF-539 CNS,2.13 µM and 4.57 µM
same,TGI,SK-MEL-2 melanoma,13.6 µM
same,GI50,HOP-92 NSCLC,2640 nM
same,TGI,HOP-92 NSCLC,6.11 µM and 7.84 µM
same,GI50,SNB-75 CNS,2820 nM
same,TGI,SNB-75 CNS,10.1 µM and 13.2 µM
same,GI50,HS 578T breast,2140 nM
same,TGI,HS 578T breast,9.84 µM
same,GI50,U251 CNS,6.92 µM and 2.65 µM
same,TGI,U251 CNS,14.6 µM and 10 µM
same,GI50,OVCAR-5 ovarian,2970 nM
same,TGI,OVCAR-5 ovarian,15.8 µM and 7.74 µM
same,GI50,RXF 393 renal,213 nM and 1100 nM
same,TGI,RXF 393 renal,761 nM and 3000 nM
same,GI50,HCT-15 colon,1250 nM
same,TGI,HCT-15 colon,1.98 µM and 3.23 µM
same,GI50,LOX IMVI melanoma,227 nM and 1570 nM
same,TGI,LOX IMVI melanoma,0.665 µM and 3.33 µM
same,GI50,UACC-62 melanoma,1550 nM
same,TGI,UACC-62 melanoma,1.64 µM and 3.2 µM
same,GI50,HCC-2998 colon,11.4 µM
same,TGI,UACC-257 melanoma,3.85 µM
same,GI50,SF-295 CNS,3.34 µM and 6.25 µM
same,TGI,SF-295 CNS,8.88 µM and 22.4 µM
same,TGI,XF 498 CNS,419 nM
same,GI50,K-562 leukemia,905 nM and 1790 nM
same,TGI,K-562 leukemia,3.22 µM and 10.7 µM
same,TGI,NCI-H226 lung,6.92 µM
Cc1ccc2cc3cccc(C(=O)NCCN(C)C)c3nc2c1,TGI,SK-MEL-28 melanoma,3.39 µM
same,TGI,SF-268 CNS,4.03 µM
same,TGI,KM20L2 colon,3.08 µM
same,TGI,OVCAR-3 ovarian,5.67 µM
same,TGI,RPMI-8226 leukemia,7.42 µM
same,TGI,KM12 colon,10 µM
same,TGI,A498 renal,2370 nM
same,TGI,HOP-18 NSCLC,7.36 µM
same,TGI,P388 leukemia,1260 nM
same,TGI,UO-31 renal,3.19 µM
same,TGI,M19-MEL melanoma,3.01 µM
same,TGI,OVCAR-4 ovarian,6.11 µM
same,TGI,DLD-1 colon,8.36 µM
same,TGI,NCI/ADR-RES ovarian,5.07 µM
same,TGI,MALME-3M melanoma,2490 nM
same,TGI,MCF7 breast,5.19 µM
same,TGI,CCRF-CEM leukemia,5.54 µM
same,TGI,A549 NSCLC,5.05 µM
same,TGI,OVCAR-8 ovarian,6.45 µM
same,TGI,DMS 114 small cell lung,2580 nM
same,TGI,P388/ADR leukemia,1460 nM
same,TGI,HL-60(TB) leukemia,2490 nM
same,TGI,DMS 273 small cell lung,2800 nM
same,TGI,SN12C renal,6.39 µM
same,TGI,IGROV1 ovarian,9.09 µM
same,TGI,SNB-78 CNS,7.78 µM
same,TGI,SNB-19 CNS,8.1 µM
same,TGI,SW-620 colon,6460 nM
same,TGI,NCI-H460 lung,1940 nM
same,TGI,HCT-116 colon,6230 nM
same,TGI,NCI-H23 lung,3.4 µM
same,TGI,CAKI-1 renal,10800 nM
same,TGI,SK-OV-3 ovarian,7.87 µM
same,TGI,HOP-62 NSCLC,6.17 µM
same,TGI,COLO 205 colon,2510 nM
same,TGI,EKVX NSCLC,3.44 µM
same,TGI,SK-MEL-5 melanoma,2.66 µM
same,TGI,HT29 colon,2.67 µM
same,TGI,SF-539 CNS,3.57 µM
same,TGI,SK-MEL-2 melanoma,3.55 µM
same,TGI,HOP-92 NSCLC,2.75 µM
same,TGI,SNB-75 CNS,4.75 µM
same,TGI,SN12K1 renal,5.59 µM
same,TGI,U251 CNS,9.2 µM
same,TGI,OVCAR-5 ovarian,4.28 µM
same,TGI,RXF 393 renal,2730 nM
same,TGI,HCT-15 colon,9.17 µM
same,TGI,LOX IMVI melanoma,6.08 µM
same,TGI,UACC-62 melanoma,3.16 µM
same,TGI,HCC-2998 colon,3.04 µM
same,TGI,UACC-257 melanoma,2.74 µM
same,TGI,SF-295 CNS,3.91 µM
same,TGI,XF 498 CNS,3680 nM
same,TGI,K-562 leukemia,> 31.3 µM
same,TGI,NCI-H226 lung,4.16 µM
